# Patent US20190247353A1, “ACNE STRAIN-SELECTIVE ANTIBACTERIAL AGENT” (MOMOTANI JUNTENKAN CO., LTD., priority 2016, published 2019)
# Experiments:
# Type in all cases: cell-based, Propionibacterium acnes
# [1] = test system: dominant strain in acne patients (RT4 strain and/or RT5 strain); experiment: MIC against dominant strain in acne patients; details: Cutibacterium acnes, in the pH range tested in the Examples
# Procedure: (§1) The antibacterial activity of a test substance was determined based on the minimum inhibitory concentration (MIC). An MIC was measured according to the broth microdilution method which is the standard method of Japanese Society of Chemotherapy.
# (§2) Each of strain suspensions (5.0×10^4 cfu/mL) was aliquoted in a 96-well round bottom microplate, each of the test substance (fatty acid concentration 10,000 μg/mL) was added at a 1/10 volume to the aliquot and mixed to prepare measurement samples (fatty acid concentration: 1,000 μg/mL). Measurement samples in 2-fold dilution series were prepared using the strain suspension (fatty acid concentration from 0.48 to 1,000 μg/mL). Using a sample containing only the solvent (DMSO) as a control, it was confirmed that the influence of the solvent on the growth of each strain could be neglected.
# (§3) The measurement samples were incubated under an anaerobic condition at 37° C. for 2 days. The presence or absence of a precipitation of test microbial cells after the incubation was examined and the minimum concentration at which the precipitation of microbial cells […] was regarded as the MIC (μg/mL) of the test substance against the acne bacterium strain.
# HL005PA1 strain (RT4) = experiment: MIC by broth microdilution method, HL005PA1 strain; details: Cutibacterium acnes, PA1; Example 6, method as Example 1; read-out: MIC against acne bacterium strain HL005 PA1 strain (RT4)
# Procedure: as §1, §2, §3
# (§4) The MIC of each of the following test substances was measured substantially in the same manner as in Example 1 (Table 12) except that a suspension of test bacterium strains was prepared using the dominant strain in acne patients (HL005PA1 strain (HM-492^†, RT4 strain), […] (HM-524^†, RT4 strain), HL045PA1 strain (HM-516^†, RT4 strain), or HL043PA2 strain (HM-514^†, RT5 strain)), or the dominant strain in healthy subjects (HL110PA4 strain (HM-555^†, RT6 strain) instead of the dominant strains in acne patients (HL053PA1 strain (RT4 strain) and HL043PA1 strain (RT5 strain)) and the dominant strain in healthy subjects (HL110PA3 strain (RT6 strain) used in Examples 1 to 3.
# HL110PA4 strain (RT6) = experiment: MIC by broth microdilution method, HL110PA4 strain; details: Cutibacterium acnes; Example 6, method as Example 1; read-out: MIC against acne bacterium strain HL110 PA4 strain (RT6)
# Procedure: as §1, §2, §3, §4
# [2] = test system: HL005PA1, HL056PA1, HL045PA1 (RT4) and HL043PA2 (RT5) strains versus HL110PA4 strain (RT6); experiment: Strain-selective antibacterial activity against different acne bacterium strains (Example 6); details: Example 6 strains
# Source text: Herein, “acne strain-selective antibacterial activity” or “strain-selective antibacterial activity” means an index indicating better inhibition of growth of a dominant strain in acne patients compared to that of a dominant strain in healthy subjects. It is expressed by the average value of the values (MICRT6/MICRT4, and MICRT6/MICRTS) obtained by dividing the minimum inhibitory concentration (MIC) of an object substance with respect to the dominant strain in healthy subjects (RT6 strain) (MICRT6) respectively by the MIC of the object substance with respect to the dominant strain in acne patients (RT4 strain) (MICRT4), and by the MIC of the object substance with respect to the dominant strain in acne patients (RT5 strain) (MICRT5).
# The strain-selective antibacterial activity of each test substance (Table 2, right-most column) was evaluated based on the following rating criteria (Table 3). When the strain-selective antibacterial activity is indicated by a numerical range, the rating was based on the minimum value thereof.
# as §4
# [3] = test system: HL053PA1 strain (RT4 strain); experiment: Time course of viable cell count, HL053PA1 strain; details: 15 μg/mL, pH 6.0, anaerobic 37° C., 0 to 44 hours (FIG. 1a)
# Procedure: (§5) To each strain suspension (pH 6.0, 5.0×10^5 cfu/mL) of the acne bacterium strain (HL053PA1 strain (RT4 strain), HL043PA1 strain (RT5 strain), and HL110PA3 strain (RT6 strain)) prepared in the same manner as in Example 1, pentadecanoic acid (C15:0) was added to mix together (final concentration of a fatty acid of 15 μg/mL, and final concentration of solvent DMSO of 0.5%), and each the mixture was statically cultured at 37° C. in a nitrogen atmosphere (anaerobic condition). Using a sample to which only DMSO was added at 0.5% (final concentration) as a control, it was confirmed that the influence of the solvent on the growth of each strain could be neglected.
# (§6) The viable cell count in the culture solution was measured at 0, 2, 8, 18, 30 and 44 hours after the start of culturing. A viable cell count (cfu/mL) was calculated from the number of emerged colonies after culturing part of the culture solution on a GAM broth agar plate under anaerobic conditions for 3 days (FIG. 1).
# [4] = test system: HL110PA3 strain (RT6 strain); experiment: Time course of viable cell count, HL110PA3 strain; details: 15 μg/mL, pH 6.0, anaerobic 37° C., 0 to 44 hours (FIG. 1c)
# Procedure: as §5, §6
# [5] = test system: HL053PA1 strain (RT4 strain) and HL110PA3 strain (RT6 strain); experiment: Coculture test, coculturing strain suspension-1; set-up: dose or concentration left out as unconfirmed; details: pH 6.0, 2 days (FIG. 2a)
# Source text: (§7) Acne bacteria strains (HL053PA1 strain (RT4 strain), HL043PA1 strain (RT5 strain), and HL110PA3 strain (RT6 strain)) were respectively precultured in the same manner as in Example 1.
# (§8) The HL053PA1 strain (RT4 strain) and the HL110PA3 strain (RT6 strain) were suspended in a modified GAM broth liquid medium (pH 6.0) respectively at a concentration of 5.0×10^4 cfu/mL. Similarly, the HL043PA1 strain (RT5 strain) and the HL110PA3 strain (RT6 strain) were suspended respectively at a concentration of 5.0×10^4 cfu/mL. The suspensions were respectively designated as coculturing strain suspensions-1, and -2.
# (§9) […] Using a sample to which only 0.5% of DMSO was added as a control, it was confirmed that the influence of the solvent on the growth of each bacterium strain could be neglected.
# (§10) The test sample was statically cultured under anaerobic conditions at 37° C. for 2 days. After the culture, part of the culture solution was cultured under anaerobic conditions on a GAM broth agar plate (pH 7) for 3 days. The bacterium strains were identified based on the morphology (particularly size) of the emerged colonies, and the viable cell count (cfu/mL) of each bacterium strain was measured. From the measurement results, the proportion of each bacterium strain in the entire microbial cells was calculated (FIG. 2).
# [6] = test system: HL043PA1 strain (RT5 strain) and HL110PA3 strain (RT6 strain); experiment: Coculture test, coculturing strain suspension-2; set-up: dose or concentration left out as unconfirmed; details: pH 6.0, 2 days (FIG. 2b)
# Source text: as §7, §8, §9, §10
MIC [1],MIC (HL005PA1 strain (RT4)),MIC (HL110PA4 strain (RT6)),SMILES,Strain-selective antibacterial activity [2],"Growth of the HL053PA1 strain (RT4 strain), viable cell count time course [3]","Growth of the HL110PA3 strain (RT6 strain), viable cell count time course [4]",Growth of the dominant strain in acne patients in coculture with RT6 strain [5],Growth of the dominant strain in acne patients in coculture with RT6 strain [6]
≤ 62.5 µg/mL,62.5 µg/mL,> 1000 µg/mL,"CCCCCCCCCCCCCCCCC(=O)O [Heptadecanoic acid (C17:0), Heptadecanoic acid]",>11,–,–,–,–
–,31.3 µg/mL,250 µg/mL,"CCCCCCCCCCCCCC(=O)O [Myristic acid (C14:0), Myristic acid]",8.5,–,–,–,–
–,62.5 µg/mL,> 1000 µg/mL,"CCCCCCCCCCCCCCCC(=O)O [Palmitic acid (C16:0), Palmitic acid]",>9.5,–,–,–,–
–,3.9 µg/mL,250 µg/mL,"CCCCCCCCCCCCCCC(=O)O [Pentadecanoic acid (C15:0), Pentadecanoic acid]",64,bacteriostatically suppressed,not suppressed,suppressed selectively,suppressed selectively
